# Measured values: patent US10383880B2 (Reset Therapeutics, Inc., priority 2012, dated 2019)
# Test system: Per2-dLuc U2OS reporter cells
# Experiment: Per2 assay for evaluating the potency of test compounds (high-throughput circadian assay)
# Type: cell-based
# Conditions: Homo sapiens, U2OS, stable U2OS reporter cells harboring Per2-dLuc; luminescence monitored over 4-5 days at 35° C.
# Procedure: Compounds were screened by using a high-throughput circadian assay system as previously described in Zhang, E. E. et al. Cell, 2009, 139, 199-210. In brief, stable U2OS reporter cells harboring Per2-dLuc were plated at a density of 8,000 cells/well in Corning 96-well, solid white, flat bottom, TC-treated microplates (Corning®), and incubated for 24 hours at 37° C. in the presence of 5% CO2. The cells were then synchronized by serum shock by media exchange to a minimal explant media (10 mM HEPES (pH 7.0), 2% B27, 1×PSG (Invitrogen®), and 1.0 mM beetle luciferin (Promega®)) followed by the addition of the compounds of formula I dissolved in dimethylsulfoxide (0.5% final dimethylsulfoxide concentration). Gene expression was monitored by measuring luminescence (TecanR M200) over 4-5 days at 35° C. The period, amplitude, and phase of the associated circadian rhythms were determined using Multicycle™ software (Actimetrics, Inc). EC50 values of the compounds of formula I were calculated using Graphpad™ (Prism®).
row,SMILES,EC50 [nM]
1,"COc1cccc(N(CC(O)Cn2c3ccccc3c3ccccc32)S(C)(=O)=O)c1 (centres unmarked) [Compound 73, N-(3-(9H-Carbazol-9-yl)-2-hydroxypropyl)-N-(3-methoxyphenyl)methanesulfonamide]",2990
2,"CS(=O)(=O)N(CC(O)Cn1c2ccccc2c2ccccc21)c1cccc(C(N)=O)c1 (centres unmarked) [Compound 74, 3-(N-(3-(9H-Carbazol-9-yl)-2-hydroxypropyl)methylsulfonamido)benzamide]",7620
3,"CS(=O)(=O)N(CC(O)Cn1c2ccccc2c2ccccc21)CC1CC2CCC1C2 (centres unmarked) [Compound 75, N-(3-(9H-Carbazol-9-yl)-2-hydroxypropyl)-N-(bicyclo[2.2.1]heptan-2-ylmethyl)methanesulfonamide]",842
4,"CS(=O)(=O)N(CC(O)Cn1c2ccccc2c2ccccc21)c1ccc2[nH]ccc2c1 (centres unmarked) [Compound 76, N-(3-(9H-Carbazol-9-yl)-2-hydroxypropyl)-N-(1H-indol-5-yl)methanesulfonamide]",2180
5,"CS(=O)(=O)N(CC(O)Cn1c2ccccc2c2ccccc21)c1ccccc1Cl (centres unmarked) [Compound 77, N-(3-(9H-Carbazol-9-yl)-2-hydroxypropyl)-N-(2-chlorophenyl)methanesulfonamide]",750
6,"CS(=O)(=O)N(CC(O)Cn1c2ccccc2c2ccccc21)c1ccc2cn[nH]c2c1 (centres unmarked) [Compound 78, N-(3-(9H-Carbazol-9-yl)-2-hydroxypropyl)-N-(1H-indazol-6-yl)methanesulfonamide]",6350
7,"CS(=O)(=O)N(CC(O)Cn1c2ccccc2c2ccccc21)c1cccnn1 (centres unmarked) [Compound 79, N-(3-(9H-Carbazol-9-yl)-2-hydroxypropyl)-N-(pyridazin-3-yl)methanesulfonamide]",2800
8,"CS(=O)(=O)N(CC(O)Cn1c2ccccc2c2ccccc21)c1ccc(C#N)cc1 (centres unmarked) [Compound 80, N-(3-(9H-Carbazol-9-yl)-2-hydroxypropyl)-N-(4-cyanophenyl)methanesulfonamide]",4220
9,"CS(=O)(=O)N(CC(O)Cn1c2ccccc2c2ccccc21)c1ccon1 (centres unmarked) [Compound 81, N-(3-(9H-Carbazol-9-yl)-2-hydroxypropyl)-N-(isoxazol-3-yl)methanesulfonamide]",964
10,"CC(C)S(=O)(=O)N(Cc1ccco1)CC(O)Cn1c2ccccc2c2ccccc21 (centres unmarked) [Compound 82, N-(3-(9H-Carbazol-9-yl)-2-hydroxypropyl)-N-(furan-2-ylmethyl)propane-2-sulfonamide]",158
11,"O=S(=O)(N(Cc1ccco1)CC(O)Cn1c2ccccc2c2ccccc21)C(F)(F)F (centres unmarked) [Compound 83, N-(3-(9H-Carbazol-9-yl)-2-hydroxypropyl)-1,1,1-trifluoro-N-(furan-2-ylmethyl)methanesulfonamide]",413
12,"O=S(=O)(C1CCCCC1)N(Cc1ccco1)CC(O)Cn1c2ccccc2c2ccccc21 (centres unmarked) [Compound 84, N-(3-(9H-Carbazol-9-yl)-2-hydroxypropyl)-N-(furan-2-ylmethyl)cyclohexanesulfonamide]",892
13,"O=S(=O)(C1CCOC1)N(Cc1ccco1)CC(O)Cn1c2ccccc2c2ccccc21 (centres unmarked) [Compound 85, N-(3-(9H-Carbazol-9-yl)-2-hydroxypropyl)-N-(furan-2-ylmethyl)tetrahydrofuran-3-sulfonamide]",510
14,"O=S1(=O)CCCCN1CC(O)Cn1c2ccc(F)cc2c2cc(F)ccc21 (centres unmarked) [Compound 86, N-(3-(3,6-Difluoro-9H-carbazol-9-yl)-2-hydroxypropyl)-1,2-thiazinane 1,1-dioxide]",46
15,"O=S1(=O)CCCN1CC(O)Cn1c2ccc(F)cc2c2cc(F)ccc21 (centres unmarked) [Compound 87, N-(3-(3,6-Difluoro-9H-carbazol-9-yl)-2-hydroxypropyl)-isothiazolidine-1,1-dioxide]",20
16,"CS(=O)(=O)N(Cc1ccco1)CC(O)Cn1c2ccc(F)cc2c2cc(F)ccc21 (centres unmarked) [Compound 88, N-(3-(3,6-Difluoro-9H-carbazol-9-yl)-2-hydroxypropyl)-N-(furan-2-ylmethyl)methanesulfonamide]",940
17,"CN(CC(O)Cn1c2ccc(F)cc2c2cc(F)ccc21)S(C)(=O)=O (centres unmarked) [Compound 89, N-(3-(3,6-Difluoro-9H-carbazol-9-yl)-2-hydroxypropyl)-N-methylmethanesulfonamide]",360
18,"COCCN(CC(O)Cn1c2ccc(F)cc2c2cc(F)ccc21)S(C)(=O)=O (centres unmarked) [Compound 90, N-(3-(3,6-Difluoro-9H-carbazol-9-yl)-2-hydroxypropyl)-N-(2-methoxyethyl)methanesulfonamide]",406
19,"O=S1(=O)CCCCN1CC(O)Cn1c2cc(F)ccc2c2ccc(F)cc21 (centres unmarked) [Compound 91, N-(3-(2,7-Difluoro-9H-carbazol-9-yl)-2-hydroxypropyl)-1,2-thiazinane 1,1-dioxide]",150

row,SMILES,EC50 [nM]
1,"O=S1(=O)CCCN1CC(O)Cn1c2cc(F)ccc2c2ccc(F)cc21 (centres unmarked) [Compound 92, N-(3-(2,7-Difluoro-9H-carbazol-9-yl)-2-hydroxypropyl)-isothiazolidine-1,1-dioxide]",40
2,"CS(=O)(=O)N(Cc1ccco1)CC(O)Cn1c2cc(F)ccc2c2ccc(F)cc21 (centres unmarked) [Compound 93, N-(3-(2,7-Difluoro-9H-carbazol-9-yl)-2-hydroxypropyl)-N-(furan-2-ylmethyl)methanesulfonamide]",2890
3,"CN(CC(O)Cn1c2cc(F)ccc2c2ccc(F)cc21)S(C)(=O)=O (centres unmarked) [Compound 94, N-(3-(2,7-Difluoro-9H-carbazol-9-yl)-2-hydroxypropyl)-N-methylmethanesulfonamide]",3450
4,"COCCN(CC(O)Cn1c2cc(F)ccc2c2ccc(F)cc21)S(C)(=O)=O (centres unmarked) [Compound 95, N-(3-(2,7-Difluoro-9H-carbazol-9-yl)-2-hydroxypropyl)-N-(2-methoxyethyl)methanesulfonamide]",2740
5,"O=S1(=O)CCCCN1CC(O)Cn1c2cc(F)ccc2c2c(F)cccc21 (centres unmarked) [Compound 96, N-(3-(2,5-Difluoro-9H-carbazol-9-yl)-2-hydroxypropyl)-1,2-thiazinane 1,1-dioxide]",456
6,"O=S1(=O)CCCN1CC(O)Cn1c2cc(F)ccc2c2c(F)cccc21 (centres unmarked) [Compound 97, N-(3-(2,5-Difluoro-9H-carbazol-9-yl)-2-hydroxypropyl)-isothiazolidine-1,1-dioxide]",319
7,"CN(CC(O)Cn1c2cc(F)ccc2c2c(F)cccc21)S(C)(=O)=O (centres unmarked) [Compound 98, N-(3-(2,5-Difluoro-9H-carbazol-9-yl)-2-hydroxypropyl)-N-methylmethanesulfonamide]",8100
8,"COCCN(CC(O)Cn1c2cc(F)ccc2c2c(F)cccc21)S(C)(=O)=O (centres unmarked) [Compound 99, N-(3-(2,5-Difluoro-9H-carbazol-9-yl)-2-hydroxypropyl)-N-(2-methoxyethyl)methanesulfonamide]",3550
9,"O=S1(=O)CCCCN1CC(O)Cn1c2ccc(F)cc2c2ccc(F)cc21 (centres unmarked) [Compound 100, N-(3-(2,6-Diflouoro-9H-carbazol-9-yl)-2-hydroxypropyl)-1,2-thiazinane 1,1-dioxide]",32
10,"O=S1(=O)CCCN1CC(O)Cn1c2ccc(F)cc2c2ccc(F)cc21 (centres unmarked) [Compound 101, N-(3-(2,6-Difluoro-9H-carbazol-9-yl)-2-hydroxypropyl)-isothiazolidine-1,1-dioxide]",50
11,"CS(=O)(=O)N(Cc1ccco1)CC(O)Cn1c2ccc(F)cc2c2ccc(F)cc21 (centres unmarked) [Compound 102, N-(3-(2,6-Difluoro-9H-carbazol-9-yl)-2-hydroxypropyl)-N-(furan-2-ylmethyl)methanesulfonamide]",3250
12,"CN(CC(O)Cn1c2ccc(F)cc2c2ccc(F)cc21)S(C)(=O)=O (centres unmarked) [Compound 103, N-(3-(2,6-Difluoro-9H-carbazol-9-yl)-2-hydroxypropyl)-N-methylmethanesulfonamide]",2210
13,"COCCN(CC(O)Cn1c2ccc(F)cc2c2ccc(F)cc21)S(C)(=O)=O (centres unmarked) [Compound 104, N-(3-(2,6-Difluoro-9H-carbazol-9-yl)-2-hydroxypropyl)-N-(2-methoxyethyl)methanesulfonamide]",3500
14,"O=S1(=O)CCCCN1CC(O)Cn1c2cccc(F)c2c2c(F)cccc21 (centres unmarked) [Compound 105, N-(3-(4,5-Difluoro-9H-carbazol-9-yl)-2-hydroxypropyl)-1,2-thiazinane 1,1-dioxide]",5200
15,"O=S1(=O)CCCN1CC(O)Cn1c2cccc(F)c2c2c(F)cccc21 (centres unmarked) [Compound 106, N-(3-(4,5-Difluoro-9H-carbazol-9-yl)-2-hydroxypropyl)-isothiazolidine-1,1-dioxide]",8600
16,"O=S1(=O)CCCCN1CC(O)Cn1c2ccc(F)cc2c2c(F)cccc21 (centres unmarked) [Compound 107, N-(3-(3,5-Diflouoro-9H-carbazol-9-yl)-2-hydroxypropyl)-1,2-thiazinane 1,1-dioxide]",240
17,"O=S1(=O)CCCN1CC(O)Cn1c2ccc(F)cc2c2c(F)cccc21 (centres unmarked) [Compound 108, N-(3-(3,5-Difluoro-9H-carbazol-9-yl)-2-hydroxypropyl)-isothiazolidine-1,1-dioxide]",388
18,"CS(=O)(=O)N(Cc1ccco1)CC(O)Cn1c2ccc(F)cc2c2c(F)cccc21 (centres unmarked) [Compound 109, N-(3-(3,5-Difluoro-9H-carbazol-9-yl)-2-hydroxypropyl)-N-(furan-2-ylmethyl)methanesulfonamide]",7420
19,"CN(CC(O)Cn1c2ccc(F)cc2c2c(F)cccc21)S(C)(=O)=O (centres unmarked) [Compound 110, N-(3-(3,5-Difluoro-9H-carbazol-9-yl)-2-hydroxypropyl)-N-methylmethanesulfonamide]",3630
